Data on 22 molecules can be found in ChEMBL document CHEMBL6092179, “Discovery of CLKs inhibitors for the treatment of non-small cell lung cancer” (Eur J Med Chem, 2024).

The source made the active and inactive calls. No cut-off for these calls is given here.

Assay [1] has as its system NCI-H1299. Kind of assay: cells. Particulars: Homo sapiens, NCI-H1299, 48 h.
Description: Antiproliferative activity against human NCI-H1299 cells assessed as inhibition of cell growth incubated for 48 hrs by MTT assay
Assay [2] deals with Dual specificity protein kinase CLK3 (Homo sapiens, UniProt P49761). Kind of assay: Inhibition of CLK3 (unknown origin) by ADP-Glo assay. For orientation: ADP-Glo turns the ADP formed in a reaction into a luminescent signal.
For assay [3], the target named is T1, Dual specificity protein kinase CLK2 (Homo sapiens, UniProt P49760). Briefly: Inhibition of CLK2 (unknown origin) by ADP-Glo assay.
Target sequence in this assay (P49760 whole entry): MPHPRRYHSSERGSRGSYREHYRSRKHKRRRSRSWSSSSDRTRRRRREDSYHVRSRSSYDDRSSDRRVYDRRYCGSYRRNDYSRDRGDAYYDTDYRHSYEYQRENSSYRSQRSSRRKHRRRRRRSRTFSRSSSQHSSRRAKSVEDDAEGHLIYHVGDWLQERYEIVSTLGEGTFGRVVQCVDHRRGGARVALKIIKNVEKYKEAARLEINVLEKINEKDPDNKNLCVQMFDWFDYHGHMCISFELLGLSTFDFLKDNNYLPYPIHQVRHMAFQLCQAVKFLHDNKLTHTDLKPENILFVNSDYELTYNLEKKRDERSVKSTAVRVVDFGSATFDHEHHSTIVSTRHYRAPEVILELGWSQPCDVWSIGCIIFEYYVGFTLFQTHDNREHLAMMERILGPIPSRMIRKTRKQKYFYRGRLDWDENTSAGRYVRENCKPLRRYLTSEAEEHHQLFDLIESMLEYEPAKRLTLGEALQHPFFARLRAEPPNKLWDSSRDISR
In assay [4] the test system is NCI-H1299. Kind of assay: Inhibition of colony formation in human NCI-H1299 cells at 1 uM incubated for 7 days by crystal violet staining based analysis. As to conditions: time 7.0 day. It counts as functional, cell-based.
The target of assay [5] is T1, Dual specificity protein kinase CLK2. Particulars: dose 20.0 nM.
Target sequence in this assay (P49760 whole entry, looked up): as the sequence (P49760 whole entry) above
Description: Inhibition of CLK2 (unknown origin) at 20 nM by ADP-Glo assay relative to control
Assay [6] has as its system Osimertinib-resistant NCI-H1975 cell. Briefly: cells. As to conditions: Homo sapiens, 48 h.
Description: Antiproliferative activity against human Osimertinib-resistant NCI-H1975 cell assessed as inhibition of cell growth incubated for 48 hrs by MTT assay
The subject of the next assay is NCI-H1975. Briefly: cells. Particulars: Homo sapiens, NCI-H1975, 48 h.
A further assay can be described thus: cells. Particulars: Homo sapiens, Osimertinib-resistant HCC827AR cell, 48 h.
The test system of another assay is HCC827. Kind of assay: cells. Particulars: Homo sapiens, HCC827, 48 h.
In a further assay the test system is A549. Kind of assay: cells. As to conditions: Homo sapiens, A549, 48 h.

The term IC50 denotes the concentration that gives 50% inhibition. Read a low IC50 as inhibition by little substance. As a reminder, the inhibition is the change of the read-out against control, counted positive when it falls.

Dual specificity protein kinase CLK3, sequence (P49761 whole entry): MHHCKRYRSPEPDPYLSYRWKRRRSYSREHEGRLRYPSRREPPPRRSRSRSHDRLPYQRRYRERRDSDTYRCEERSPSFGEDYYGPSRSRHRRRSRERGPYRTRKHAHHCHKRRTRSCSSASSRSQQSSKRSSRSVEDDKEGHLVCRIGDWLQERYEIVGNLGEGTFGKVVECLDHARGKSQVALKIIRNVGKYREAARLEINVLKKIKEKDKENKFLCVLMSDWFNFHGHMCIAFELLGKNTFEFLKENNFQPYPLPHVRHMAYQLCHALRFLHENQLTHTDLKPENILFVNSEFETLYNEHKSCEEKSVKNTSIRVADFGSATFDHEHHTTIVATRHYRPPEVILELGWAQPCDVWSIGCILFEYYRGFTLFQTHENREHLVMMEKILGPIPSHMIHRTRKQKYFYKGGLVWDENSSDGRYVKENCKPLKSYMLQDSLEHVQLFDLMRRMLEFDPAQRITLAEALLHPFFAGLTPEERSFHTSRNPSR
Description for A549: Antiproliferative activity against human A549 cells assessed as inhibition of cell growth incubated for 48 hrs by MTT assay
Description for HCC827: Antiproliferative activity against human HCC827 cells assessed as inhibition of cell growth incubated for 48 hrs by MTT assay

Turning to `CC(C)C[C@H](N)COc1cncc(-c2ccc3[nH]nc(-c4nc(-c5ccco5)c[nH]4)c3c2)c1`, in the assay with NCI-H1299 [1], half-maximal inhibition (IC50) was put at 480 nM.

Turning to `CC(C)CC(=O)Nc1cncc(-c2ccc3[nH]nc(-c4nc(-c5ccsc5)c[nH]4)c3c2)c1`, the IC50 in the assay on NCI-H1299 [1] is 910 nM.

`Cc1nc(-c2n[nH]c3ccc(-c4cncc(CN5CCC(F)(F)C5)c4)cc23)[nH]c1-c1ccccc1` came in with an IC50 in the assay on NCI-H1299 [1] of 1620 nM.

The molecule `CC(C)C[C@H](N)COc1cncc(-c2ccc3[nH]nc(-c4nc(-c5ccsc5)c[nH]4)c3c2)c1` yielded an IC50 with NCI-H1299 [1] of 1150 nM.

With `CC(C)CC(=O)Nc1cncc(-c2ccc3[nH]nc(-c4nc(-c5ccco5)c[nH]4)c3c2)c1`, the IC50 in the assay on NCI-H1299 [1] stood at 1420 nM.

For the molecule `CC(C)C[C@H](N)COc1cncc(-c2ccc3[nH]nc(-c4nc(-c5cccc(C(F)(F)F)c5)c[nH]4)c3c2)c1`, the IC50 with NCI-H1299 [1] worked out at 1160 nM.

`CC(C)CC(=O)Nc1cncc(-c2ccc3[nH]nc(-c4nc(-c5ccco5)c(-c5ccco5)[nH]4)c3c2)c1`: the IC50 in the assay on NCI-H1299 [1] was 1530 nM.

With `FC1(F)CCN(Cc2cncc(-c3ccc4[nH]nc(-c5nc(-c6ccsc6)c[nH]5)c4c3)c2)C1`, in the assay on NCI-H1299 [1], the midpoint of inhibition, the IC50, lay at 1380 nM.

Consider `Cc1nc(-c2n[nH]c3ccc(-c4cncc(NC(=O)CC(C)C)c4)cc23)[nH]c1-c1ccccc1`, for which the IC50 in the assay with NCI-H1299 [1] was found to be 1380 nM.

`FC1(F)CCN(Cc2cncc(-c3ccc4[nH]nc(-c5nc(-c6ccccc6)c(-c6ccccc6)[nH]5)c4c3)c2)C1` had an IC50 with NCI-H1299 [1] of 6580 nM.

For `CC(C)C[C@H](N)COc1cncc(-c2ccc3[nH]nc(-c4nc(-c5ccco5)c(-c5ccco5)[nH]4)c3c2)c1`, the IC50 with NCI-H1299 [1] is 1680 nM.

As to `CC(C)CC(=O)Nc1cncc(-c2ccc3[nH]nc(-c4nc(-c5cccnc5)c[nH]4)c3c2)c1`, it took 820 nM to reach half-maximal inhibition in the assay with NCI-H1299 [1] (IC50).

`FC1(F)CCN(Cc2cncc(-c3ccc4[nH]nc(-c5nc(-c6cccc(C(F)(F)F)c6)c[nH]5)c4c3)c2)C1` returned an IC50 in the assay with NCI-H1299 [1] of 2660 nM.

In turn, `FC1(F)CCN(Cc2cncc(-c3ccc4[nH]nc(-c5nc(-c6ccccc6)c[nH]5)c4c3)c2)C1` showed an IC50 in the assay on NCI-H1299 [1] of 1270 nM.

Turning to `Cc1[nH]nc2ccc(-c3cncc(OC[C@@H](N)CC(C)C)c3)cc12`, the IC50 was above 100 nM in assay [2]; 4.1 nM in [3]; 1920 nM in [6]; 1720 nM in the assay on NCI-H1975; 3670 nM in “cells”; 3950 nM with HCC827. The IC50 in the assay with A549 was 3950 nM; with NCI-H1299 [1], 2510 nM. The inhibition entry in the assay with NCI-H1299 [4] is “inactive”. The same molecule registered an inhibition in assay [5] of 98.5%.

In turn, `CC(C)C[C@H](N)COc1cncc(-c2ccc3[nH]nc(-c4nc(-c5cccnc5)c[nH]4)c3c2)c1` registered an IC50 in the assay with NCI-H1299 [1] of 700 nM.

The molecule `CC(C)C[C@H](N)COc1cncc(-c2ccc3[nH]nc(-c4nc(-c5ccccc5)c(-c5ccccc5)[nH]4)c3c2)c1` gave an IC50 with NCI-H1299 [1] of 2380 nM.

In the case of `CC(C)CC(=O)Nc1cncc(-c2ccc3[nH]nc(-c4nc(-c5cccc(C(F)(F)F)c5)c[nH]4)c3c2)c1`, the IC50 in the assay with NCI-H1299 [1] turned out to be 3070 nM.

For the molecule `FC1(F)CCN(Cc2cncc(-c3ccc4[nH]nc(-c5nc(-c6ccco6)c[nH]5)c4c3)c2)C1`, the IC50 in the assay with NCI-H1299 [1] amounted to 720 nM.

In the case of `Cc1nc(-c2n[nH]c3ccc(-c4cncc(OC[C@@H](N)CC(C)C)c4)cc23)[nH]c1-c1ccccc1`, in the assay on NCI-H1299 [1], the IC50 was found to be 450 nM.

In the assay with NCI-H1299 [1], `CCc1[nH]c(-c2n[nH]c3ccc(-c4cncc(NC(=O)CC(C)C)c4)cc23)nc1C` displayed an IC50 of 1620 nM.

For the molecule `FC1(F)CCN(Cc2cncc(-c3ccc4[nH]nc(-c5nc(-c6cccnc6)c[nH]5)c4c3)c2)C1`, the IC50 in the assay on NCI-H1299 [1] came out at 260 nM.
